# Like-named read-outs stand apart in the source and are kept apart here.
# Assays:
# PNT2A cells = test: Cytotoxicity Alamar Blue assay on normal prostatic epithelial cells; assay type: cell-based, human; conditions: 100 μg/mL, % of DMSO control values, n = 3
# Procedure: Meanwhile, the initial screening for cytotoxicity activity of the isolated compounds was performed on human normal prostatic epithelial cells (PNT2A) at 100 μg/mL. […] In the initial screening, if the cell viability is less than 60%, a concentration response test at 0.3 to 300 μg/mL was carried on.
# The pure compounds from mangrove plant, A. lanata were tested for cytotoxicity in vitro against human normal prostatic epithelial cell line (PNT2A) derived from ECACC (Sigma-Aldrich, Dorset, UK).
# The cytotoxicity activity of the pure compounds was determined using the well-established Alamar Blue™ redox-based 96-well microplate assay, in which the screening procedure was modified from. PNT2A cells were seeded into 96-well microplate assay at density of 0.5 × 10^4 cells/well in 100 μL of Dulbecco’s modified Eagle’s medium (DMEM; Invitrogen, Paisley, UK) and incubated at 37 °C, 5% CO2 with a humidified atmosphere for 24 h. […] The microplate plate was incubated at 37 °C, 5% CO2 with a humidified atmosphere for 24 h, then 10 μL of Alamar blue was added. The microplate was further incubated for another 20 h, then the fluorescence was measured using a Wallac Victor 2 microplate reader (Perkin Elmer, Cambridge, UK) (excitation: 530 nm, emission 590 nm). The results were calculated as % of the DMSO control values.
# T. cruzi = test system: T. cruzi; design: method as in earlier work; conditions: cited from earlier work
# T. b. brucei = test: Anti-trypanosomal Alamar blue 96-well microplate assay; assay type: cell-based, Trypanosoma brucei brucei S427 (blood stream form); conditions: for MIC: read-out: MIC (minimum inhibitory concentration necessary to achieve 90% growth inhibition); for anti-trypanosomal activity (in words): screening of extract/fractions at 20, 10 and 5 μg/mL, pure compounds by MIC
# Procedure: Each fraction was screened at different concentrations of 20, 10 and 5 μg/mL. The assay was performed in duplicate for each sample.
# MIC assays were performed for samples having greater than 90% inhibition at a concentration of 20 μM in the initial screening campaign. The MIC values of the isolated compounds against T. b. brucei were determined by averaging the results of two independent assays. The concentrations were averaged and converted to μM.
# The activity of the pure compounds was tested in vitro against the blood stream form of Trypanosomal brucei brucei (T. b. brucei) S427. The activity of the samples was determined using the well-established Alamar blue™ 96-well microplate assay, in which the screening procedure was modified from the microplate Alamar blue assay, to determine the drug sensitivity of African trypanosomes. The samples were initially screened at one concentration (20 μg/mL crude extracts or fractions, 20 μM for pure compounds) to determine their in vitro activity. Stock solutions of tested samples in DMSO (Acros Organics BVBA, Janssen Pharmaceutical, Geel, Belgium) were prepared at concentrations of 10 mg/mL (extracts) or 10 mM for pure compounds. The concentration of DMSO should not exceed 0.5% of the final test solution.
# [1] = test system: epimastigotes of T. cruzi; design: method as in doi:10.1016/0960-894X(95)00248-R; conditions: cited from earlier work
# [2] = test system: epimastigotes of T. cruzi; design: method as in PMID 8788584; conditions: read-out: 50% culture growth inhibition (GI50); cited from earlier work
# [3] = test system: bloodstream strain of T. b. brucei; design: method as in PMID 17637068; conditions: cited from earlier work
# [4] = test system: Giardia lamblia trophozoites; design: method as in doi:10.29356/jmcs.v56i2.305; conditions: read-out: IC50 (giardicidal activity); cited from earlier work
# T. b. rhodesiense = test system: T. b. rhodesiense; design: method as in PMID 21438586; conditions: T. b. rhodesiense in vitro bloodstream trypomastigotes; cited from earlier work
# [5] = Trypanosoma brucei, T. b. brucei, two independent assays
# [6] = T. cruzi epimastigotes, compounds with two methoxy groups on the benzene ring
# [7] = T. b. brucei, two independent assays
# [8] = different strains of T. cruzi epimastigotes, at 13–17 μM of the tested compounds
compound,measurement,setting,value
"CC(C)(C)CC(C)(C)c1ccc(OCCO)cc1 [triton X, reference compound]","Cell viability, % of DMSO control",PNT2A cells,0.082%
Cc1cccc2c1C(=O)c1c(CO)coc1C2=O [maturone],trypanocidal activity (in words),T. cruzi,potent trypanocidal activity
"CC(C)(O)c1cc2c(o1)C(=O)c1ccccc1C2=O [Compound 4, avicequinone C]","Cell viability, % of DMSO control",PNT2A cells,68.6%
same,MIC,T. b. brucei; [5],3.12 µM
"COc1c2c(c(OC)c3ccccc13)OC(C(C)(C)O)C2 (stereo not drawn) [Compound 3, avicenol C]","Cell viability, % of DMSO control",PNT2A cells,78.3%
same,MIC,T. b. brucei; [5],6.25 µM
"COc1ccc2c(c1OC)C(=O)c1occc1C2=O [7,8-dimethoxynaphtho[2,3-b]furan-4,9-quinone]",growth inhibition (GI),[1]; [6],25%
"Cc1ccc(C(=O)Nc2ccc(S(=O)(=O)O)c3cc(S(=O)(=O)O)cc(S(=O)(=O)O)c23)cc1NC(=O)c1cccc(NC(=O)Nc2cccc(C(=O)Nc3cc(C(=O)Nc4ccc(S(=O)(=O)O)c5cc(S(=O)(=O)O)cc(S(=O)(=O)O)c45)ccc3C)c2)c1 [suramin, reference compound]",MIC,T. b. brucei; Trypanosoma brucei,0.11 µM
"CC(C)(O)C1Cc2c(c(O)c3ccccc3c2O)O1 (stereo not drawn) [Compound 1, 2-(2-hydroxypropan-2-yl)-2,3-dihydronaphtho-[2,3-b] furan-4,9-diol]","Cell viability, % of DMSO control",PNT2A cells,86.1%
same,MIC,T. b. brucei; [7],12.50 µM
same,MIC,T. b. brucei; [5],12.5 µM
"CC(C)=CCC12OC(C(C)(C)O)CC1=C(O)c1ccccc1C2=O (stereo not drawn) [Compound 2, glycosemiquinone]","Cell viability, % of DMSO control",PNT2A cells,86.1%
same,MIC,T. b. brucei; [7],12.50 µM
same,MIC,T. b. brucei; [5],12.5 µM
"CC1OC2=C(C(=O)c3ccccc3C2=O)C1(C)C (single isomer, unassigned; (-)) [(−)-2,3,3-trimethyl-2-3-dihydronaphtho [2,3-b]furan-4,9-quinone]",GI50,[2],2.1 to 5.2 µM
CC1(C)CC[C@]2(C)CC[C@]3(C)C(=CC[C@@H]4[C@@]5(C)CC[C@H](O)C(C)(C)[C@@H]5CC[C@]43C)[C@@H]2C1 [β-amyrin],IC50,[3],127 µM
"COc1ccc2c(c1)C(=O)c1cc(C(C)=O)oc1C2=O [2-acetyl-6-methoxynaphtho[2,3-b]furan4,9-quinone]",growth inhibition (GI),[1]; [8],100%
"CC(C)=CCC12OC(C(C)(C)O)CC1C(=O)c1ccccc1C2=O (stereo not drawn) [Compound 5, glycoquinone]","Cell viability, % of DMSO control",PNT2A cells,80.3%
same,MIC,T. b. brucei; [7],12.50 µM
same,MIC,T. b. brucei; [5],12.5 µM
"CC[C@H](/C=C/[C@@H](C)[C@H]1CC[C@H]2[C@@H]3CC=C4C[C@@H](O)CC[C@]4(C)[C@H]3CC[C@]12C)C(C)C [Compound 9, stigmasterol]","Cell viability, % of DMSO control",PNT2A cells,98.7%
same,anti-trypanosomal activity (in words),T. b. brucei; T. b. brucei,very low activity
same,MIC,T. b. brucei; Trypanosoma brucei,126 µM
"COc1ccc2c(c1OC)C(=O)c1ccoc1C2=O [5,6-dimethoxynaphtho [2,3-b]furan-4,9-quinone]",growth inhibition (GI),[1]; [6],45%
"CC1(C)CC[C@]2(C)CC=C3[C@]4(C)CC[C@H]5C(C)(C)C(=O)CC[C@]5(C)[C@H]4CC[C@@]3(C)[C@@H]2C1 [Compound 6, taraxerone]","Cell viability, % of DMSO control",PNT2A cells,88.8%
same,anti-trypanosomal activity (in words),T. b. brucei; T. b. brucei,inactive
same,MIC,T. b. brucei; [5],154 µM
same,IC50,[4],26.7 µM
"CC[C@H](CC[C@@H](C)[C@H]1CC[C@H]2[C@@H]3CC=C4C[C@@H](O)CC[C@]4(C)[C@H]3CC[C@]12C)C(C)C [Compound 8, β-sitosterol]","Cell viability, % of DMSO control",PNT2A cells,96.2%
same,anti-trypanosomal activity (in words),T. b. brucei; T. b. brucei,inactive
same,MIC,T. b. brucei; Trypanosoma brucei,142 µM
"COc1ccc2c(c1OC)C(=O)c1oc(C(C)=O)cc1C2=O [2-acetyl-7,8-dimethoxynaphtho[2,3-b] furan-4,9-quinone]",growth inhibition (GI),[1]; [6],45%
"CC1(C)CC[C@]2(C)CC=C3[C@]4(C)CC[C@H]5C(C)(C)[C@@H](O)CC[C@]5(C)[C@H]4CC[C@@]3(C)[C@@H]2C1 [Compound 7, taraxerol]","Cell viability, % of DMSO control",PNT2A cells,92.8%
same,IC50,T. b. rhodesiense,< 10 µM
same,anti-trypanosomal activity (in words),T. b. brucei; T. b. brucei,inactive
same,MIC,T. b. brucei; [5],145 µM
same,IC50,[4],37.8 µM
"COc1ccc2c(c1)C(=O)c1cc(C(C)O)oc1C2=O (stereo not drawn) [2-(1-hydroxyethyl)-6-methoxynaphtho[2,3-b]furan-4,9-quinone]",growth inhibition (GI),[1]; [8],100%
"COc1ccc2c(c1OC)C(=O)c1oc(C(C)O)cc1C2=O (stereo not drawn) [2-(1-hydroxyethyl)-7,8-dimethoxynaphtho[2,3-b]furan-4,9-quinone]",growth inhibition (GI),[1]; [6],22%

# Source: publication PMC7767399, “Targeted Isolation of Anti-Trypanosomal Naphthofuran-Quinone Compounds from the Mangrove Plant Avicennia lanata” (Marine Drugs, 2020)
